target: T1, Human PPARα (Homo sapiens, UniProt Q07869); assay: Human PPARα Reporter Assay (luciferase); assay type: cell-based; settings: human PPARα reporter cells, overnight incubation, antagonism; read-out: Luciferase IC50
T1 construct: host or cells: proprietary non-human mammalian cells
T1 sequence (Q07869 1-468): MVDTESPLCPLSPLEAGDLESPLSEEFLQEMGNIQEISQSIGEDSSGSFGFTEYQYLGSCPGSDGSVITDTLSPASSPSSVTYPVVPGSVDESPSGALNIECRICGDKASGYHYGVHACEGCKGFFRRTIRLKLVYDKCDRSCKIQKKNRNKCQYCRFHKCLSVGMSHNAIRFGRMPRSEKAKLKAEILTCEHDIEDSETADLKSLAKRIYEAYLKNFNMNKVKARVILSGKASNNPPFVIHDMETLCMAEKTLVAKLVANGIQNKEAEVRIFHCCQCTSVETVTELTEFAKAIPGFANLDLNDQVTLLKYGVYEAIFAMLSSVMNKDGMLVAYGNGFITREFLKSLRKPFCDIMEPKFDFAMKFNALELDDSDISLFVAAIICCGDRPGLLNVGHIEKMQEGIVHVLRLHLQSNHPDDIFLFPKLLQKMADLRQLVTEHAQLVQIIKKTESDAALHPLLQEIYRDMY
Method in brief: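 Non-human mammalian cells constitutively expressing human PPARα with a PPARα-responsive luciferase reporter were dosed with compounds right after plating. After overnight incubation, media removed and detection reagent added; luminescence taken as proportional to PPARα activation, agonist or antagonist mode.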

Compound	IC50 [nM]
CCn1c(CCCc2ccc(-c3ccc(OC(F)(F)F)c(CC(=O)O)c3)cc2)nn(Cc2ccc(C(C)(C)C)cc2)c1=O [Example 130, 2-(4′-(3-(1-(4-(tert-Butyl)benzyl)-4-ethyl-5-oxo-4,5-dihydro-1H-1,2,4-triazol-3-yl)propyl)-4-(trifluoromethoxy)-[1,1′-biphenyl]-3-yl)acetic acid]	11
CCn1c(CCCc2ccc(-c3ccc(OC(F)(F)F)c(C(=O)O)c3)cc2)nn(Cc2ccc(C(C)(C)C)cc2)c1=O [Example 131, 4′-(3-(1-(4-(tert-Butyl)benzyl)-4-ethyl-5-oxo-4,5-dihydro-1H-1,2,4-triazol-3-yl)propyl)-4-(trifluoromethoxy)-[1,1′-biphenyl]-3-carboxylic acid]	15
CCn1c(CCCc2ccc(-c3ccc(OC)c(C4(C(=O)O)CCC4)c3)cc2)nn(Cc2ccc(C(C)(C)C)cc2)c1=O [Example 133, 1-(4′-(3-(1-(4-(tert-Butyl)benzyl)-4-ethyl-5-oxo-4,5-dihydro-1H-1,2,4-triazol-3-yl)propyl)-4-methoxy-[1,1′-biphenyl]-3-yl)cyclobutanecarboxylic acid]	597
CCn1c(CCCc2ccc(-c3ccc(OC)c(CC(=O)NS(=O)(=O)c4ccccc4)c3)cc2)nn(Cc2ccc(C(C)(C)C)cc2)c1=O [Example 136, 2-(4′-(3-(1-(4-(tert-Butyl)benzyl)-4-ethyl-5-oxo-4,5-dihydro-1H-1,2,4-triazol-3-yl)propyl)-4-methoxy-[1,1′-biphenyl]-3-yl)-N-(phenylsulfonyl)acetamide]	41
CCn1c(CCCc2ccc(-c3ccc(OC)c(C(=O)O)n3)cc2)nn(Cc2ccc(C(C)(C)C)cc2)c1=O [Example 139, 6-(4-(3-(1-(4-(tert-Butyl)benzyl)-4-ethyl-5-oxo-4,5-dihydro-1H-1,2,4-triazol-3-yl)propyl)phenyl)-3-methoxypicolinic acid]	89
CCn1c(CCCc2ccc(-c3cc(C(=O)O)c(OC)cn3)cc2)nn(Cc2ccc(C(C)(C)C)cc2)c1=O [Example 140, 2-(4-(3-(1-(4-(tert-Butyl)benzyl)-4-ethyl-5-oxo-4,5-dihydro-1H-1,2,4-triazol-3-yl)propyl)phenyl)-5-methoxyisonicotinic acid]	396
CCn1c(CCCc2ccc(-c3ccc(OC)c([C@H](C)C(=O)O)c3)cc2)nn(Cc2ccc(C(C)(C)C)cc2)c1=O [Example 142, (S)-2-(4′-(3-(1-(4-(tert-Butyl)benzyl)-4-ethyl-5-oxo-4,5-dihydro-1H-1,2,4-triazol-3-yl)propyl)-4-methoxy-[1,1′-biphenyl]-3-yl)propanoic acid]	272
CCn1c(CCCc2ccc(-c3ccc(OC)c(CC(=O)O)n3)cc2)nn(Cc2ccc(C(C)(C)C)cc2)c1=O [Example 144, 2-(6-(4-(3-(1-(4-(tert-Butyl)benzyl)-4-ethyl-5-oxo-4,5-dihydro-1H-1,2,4-triazol-3-yl)propyl)phenyl)-3-methoxypyridin-2-yl)acetic acid]	114
CCn1c(CCCc2ccc(-c3ccc(C)c(N)c3)cc2)nn(Cc2ccc(C(C)(C)C)cc2)c1=O [Example 149, 3-(3-(3′-Amino-4′-methyl-[1,1′-biphenyl]-4-yl)propyl)-1-(4-(tert-butyl)benzyl)-4-ethyl-1H-1,2,4-triazol-5(4H)-one]	161
CCn1c(CCCc2ccc(-c3ccc(OC)c(CC(=O)O)c3)c(C(F)(F)F)c2)nn(Cc2ccc(C(C)(C)C)cc2)c1=O [Example 150, 2-(4′-(3-(1-(4-(tert-Butyl)benzyl)-4-ethyl-5-oxo-4,5-dihydro-1H-1,2,4-triazol-3-yl)propyl)-4-methoxy-2′-(trifluoromethyl)-[1,1′-biphenyl]-3-yl) acetic acid]	126
CCn1c(CCCc2ccc(-c3cccc(NC(=O)Nc4ccccc4)n3)cc2)nn(Cc2ccc(C(C)(C)C)cc2)c1=O [Example 153, 1-(6-(4-(3-(1-(4-(tert-Butyl)benzyl)-4-ethyl-5-oxo-4,5-dihydro-1H-1,2,4-triazol-3-yl)propyl)phenyl)pyridin-2-yl)-3-phenylurea]	947

Further compounds by falling IC50, results first:

IC50 [nM]	Compound
692	CCn1c(CCCc2ccc(-c3ccc(OC)c(CC(=O)O)c3)c(O)c2)nn(Cc2ccc(C(C)(C)C)cc2)c1=O [Example 145, 2-(4′-(3-(1-(4-(tert-Butyl)benzyl)-4-ethyl-5-oxo-4,5-dihydro-1H-1,2,4-triazol-3-yl)propyl)-2′-hydroxy-4-methoxy-[1,1′-biphenyl]-3-yl) acetic acid]
676	CCn1c(CCCc2ccc(-c3ccc(C4(C(=O)O)CC4)cc3)cc2)nn(Cc2ccc(C(C)(C)C)cc2)c1=O [Example 137, 1-(4′-(3-(1-(4-(tert-Butyl)benzyl)-4-ethyl-5-oxo-4,5-dihydro-1H-1,2,4-triazol-3-yl)propyl)-[1,1′-biphenyl]-4-yl)cyclopropanecarboxylic acid]
241	CCn1c(CCCc2ccc(-c3ccc(C(F)(F)F)c(N)c3)cc2)nn(Cc2ccc(C(C)(C)C)cc2)c1=O [Example 148, 3-(3-(3′-Amino-4′-(trifluoromethyl)-[1,1′-biphenyl]-4-yl)propyl)-1-(4-(tert-butyl)benzyl)-4-ethyl-1H-1,2,4-triazol-5(4H)-one]
241	CCn1c(CCCc2ccc(-c3cccc(NC(=O)NS(=O)(=O)c4ccccc4)n3)cc2)nn(Cc2ccc(C(C)(C)C)cc2)c1=O [Example 154, N-((6-(4-(3-(1-(4-(tert-Butyl)benzyl)-4-ethyl-5-oxo-4,5-dihydro-1H-1,2,4-triazol-3-yl)propyl)phenyl)pyridin-2-yl)carbamoyl)benzenesulfonamide]
192	CCn1c(CCCc2ccc(-c3ccc(OC)c(CC(=O)NS(C)(=O)=O)c3)cc2)nn(Cc2ccc(C(C)(C)C)cc2)c1=O [Example 135, 2-(4′-(3-(1-(4-(tert-Butyl)benzyl)-4-ethyl-5-oxo-4,5-dihydro-1H-1,2,4-triazol-3-yl)propyl)-4-methoxy-[1,1′-biphenyl]-3-yl)-N-(methylsulfonyl)acetamide]
160	CCn1c(CCCc2ccc(-c3ccc(C)c(NS(=O)(=O)c4ccccc4)c3)cc2)nn(Cc2ccc(C(C)(C)C)cc2)c1=O [Example 152, 1-{[4-(tert-Butyl)phenyl]methyl}-4-ethyl-3-[3-(4-{4-methyl-3-[(phenylsulfonyl)amino]phenyl}phenyl)propyl]-1,2,4-triazolin-5-one]
109	CCn1c(CCCc2ccc(-c3ccc(C(F)(F)F)c(C(=O)O)c3)cc2)nn(Cc2ccc(C(C)(C)C)cc2)c1=O [Example 134, 4′-(3-(1-(4-(tert-Butyl)benzyl)-4-ethyl-5-oxo-4,5-dihydro-1H-1,2,4-triazol-3-yl)propyl)-4-(trifluoromethyl)-[1,1′-biphenyl]-3-carboxylic acid]
101	CCn1c(CCCc2ccc(-c3ccc(C4(F)COC4)cc3)cc2)nn(Cc2ccc(C(C)(C)C)cc2)c1=O [Example 143, 1-(4-(tert-Butyl)benzyl)-4-ethyl-3-(3-(4%(3-fluorooxetan-3-yl)-[1,1′-biphenyl]-4-yl)propyl)-1H-1,2,4-triazol-5(4H)-one]
98	CCn1c(CCCc2ccc(-c3ccc(OC)c(CC(=O)O)c3)cc2O)nn(Cc2ccc(C(C)(C)C)cc2)c1=O [Example 146, 2-(4′-(3-(1-(4-(tert-Butyl)benzyl)-4-ethyl-5-oxo-4,5-dihydro-1H-1,2,4-triazol-3-yl)propyl)-3′-hydroxy-4-methoxy-[1,1′-biphenyl]-3-yl) acetic acid]
85	CCn1c(CCCc2ccc(-c3ccc(OC)c(N)c3)cc2)nn(Cc2ccc(C(C)(C)C)cc2)c1=O [Example 147, 3-(3-(3′-Amino-4′-methoxy-[1,1′-biphenyl]-4-yl)propyl)-1-(4-(tert-butyl)benzyl)-4-ethyl-1H-1,2,4-triazol-5(4H)-one]
61	CCn1c(CCCc2ccc(-c3ccc(OC)c(NS(=O)(=O)c4ccccc4)c3)cc2)nn(Cc2ccc(C(C)(C)C)cc2)c1=O [Example 151, 1-{[4-(tert-Butyl)phenyl]methyl}-4-ethyl-3-[3-(4-{4-methoxy-3-[(phenylsulfonyl)amino]phenyl}phenyl)propyl]-1,2,4-triazolin-5-one]
33	CCn1c(CCCc2ccc(-c3ccnc(NS(=O)(=O)c4ccccc4)n3)cc2)nn(Cc2ccc(C(C)(C)C)cc2)c1=O [Example 138, N-(4-(4-(3-(1-(4-(tert-Butyl)benzyl)-4-ethyl-5-oxo-4,5-dihydro-1H-1,2,4-triazol-3-yl)propyl)phenyl)pyrimidin-2-yl)benzenesulfonamide]
29	CCn1c(CCCc2ccc(-c3ccc(OC)c([C@@H](C)C(=O)O)c3)cc2)nn(Cc2ccc(C(C)(C)C)cc2)c1=O [Example 141, (R)-2-(4′-(3-(1-(4-(tert-Butyl)benzyl)-4-ethyl-5-oxo-4,5-dihydro-1H-1,2,4-triazol-3-yl)propyl)-4-methoxy-[1,1′-biphenyl]-3-yl)propanoic acid]
12	CCn1c(CCCc2ccc(-c3ccc(C)c(C(=O)O)c3)cc2)nn(Cc2ccc(C(C)(C)C)cc2)c1=O [Example 132, 4′-(3-(1-(4-(tert-Butyl)benzyl)-4-ethyl-5-oxo-4,5-dihydro-1H-1,2,4-triazol-3-yl)propyl)-4-methyl-[1,1′-biphenyl]-3-carboxylic acid]

— patent US9505728B2, “Triazolone compounds and uses thereof” (INCEPTION 2, INC., priority 2012, dated 2016)
